Source: patent US11406614B2, “Composition comprising EPA and DHA for an enhanced efficacy of anticancer agents” (Fresenius Kabi Deutschland GmbH, priority 2016, dated 2022)

System: human colon adenocarcinoma cell line LS174T
Assay: Subcutaneous LS174T xenograft model, tumor growth inhibition
Set-up: species or system BALB/c nude mice
Conditions: mouse, in vivo
Experimental: Example 2 was repeated with the anticancer agent fluorouracil (5-FU) and utilizing a different xen-ograft model involving the human colon adenocarcinoma cell line LS174T.
The suboptimal dose of 5-FU was determined with 75 mg/kg. The anticancer agent was intraperitoneally administered at the suboptimal dose once a week (days 11, 18 and 25 after inoculation). The emulsions were administered intravenously five times a week (Mo-Fr) at a dose of 2 ml/kg.
The results were statistically analyzed.

`O=c1[nH]cc(F)c(=O)[nH]1` [Composition 5-FU, fluorouracil] showed a Suboptimal dose of 75 mg/kg.
